Laboratory results from ChEMBL document CHEMBL3585313, “Fragment-Based Discovery of a Small Molecule Inhibitor of Bruton's Tyrosine Kinase” (J Med Chem, 2015).
Blank lines part the entries; values can stand above or below the molecule they belong to.

What was measured:
[1] = biological target: Tyrosine-protein kinase Lck (Homo sapiens, UniProt P06239); assay: Inhibition of Lck (unknown origin)
[2] = Clearance in Sprague-Dawley rat at 1 mg/kg, iv; format: ADME, organism-based; conditions: in vivo
[3] = Volume of distribution at steady state in Sprague-Dawley rat at 1 mg/kg, iv and 4 mg/kg, po; format: ADME, organism-based; conditions: in vivo, read-out: Vdss
[4] = Half life in Sprague-Dawley rat at 1 mg/kg, iv and 4 mg/kg, po; format: ADME, organism-based; conditions: in vivo
[5] = Oral bioavailability in Sprague-Dawley rat at 4 mg/kg; format: ADME, organism-based; conditions: in vivo
Activin receptor type-1 = Activin receptor type-1 (Homo sapiens, UniProt Q04771); assay: Inhibition of human recombinant ALK2 by LanthaScreen Binding assay
Activin receptor type-1, sequence (Q04771 whole entry, the tested form may be a part): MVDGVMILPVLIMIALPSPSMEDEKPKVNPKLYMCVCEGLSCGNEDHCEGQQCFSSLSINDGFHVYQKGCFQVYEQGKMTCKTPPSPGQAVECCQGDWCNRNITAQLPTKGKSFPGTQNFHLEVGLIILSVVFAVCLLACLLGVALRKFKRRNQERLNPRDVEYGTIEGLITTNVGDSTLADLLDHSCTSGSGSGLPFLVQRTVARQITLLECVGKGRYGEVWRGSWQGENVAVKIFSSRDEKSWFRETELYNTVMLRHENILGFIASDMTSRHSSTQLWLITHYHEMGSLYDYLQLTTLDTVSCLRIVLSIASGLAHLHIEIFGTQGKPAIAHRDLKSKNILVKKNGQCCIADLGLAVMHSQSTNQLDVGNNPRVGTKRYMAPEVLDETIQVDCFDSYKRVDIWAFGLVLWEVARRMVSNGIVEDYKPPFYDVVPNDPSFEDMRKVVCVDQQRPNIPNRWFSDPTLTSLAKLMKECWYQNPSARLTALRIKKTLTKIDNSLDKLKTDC

LIM domain kinase 1 = LIM domain kinase 1 (Homo sapiens, UniProt P53667); assay: Inhibition of human recombinant LIMK1 by LanthaScreen Binding assay
Activated CDC42 kinase 1 = Activated CDC42 kinase 1 (Homo sapiens, UniProt Q07912); assay: Inhibition of human recombinant TNK2 by LanthaScreen Binding assay
Rattus norvegicus [6] = assay: Antiarthritic activity in po dosed bovine type-2 collagen-induced po dosed female Lewis rat arthritic model assessed as inhibition of paw volume administered as qd starting on day 12 continued through day 21; format: functional, organism-based
Rattus norvegicus [7] = assay: Antiarthritic activity in po dosed bovine type-2 collagen-induced po dosed female Lewis rat arthritic model assessed as increase in paw volume AUC (0 to 24 hrs) administered as qd starting on day 12 continued through day 21; format: functional, organism-based
[8] = Clearance in C57/bl6 mouse at 1 mg/kg, iv and 10 mg/kg, po; format: ADME, organism-based; conditions: in vivo
[9] = Volume of distribution at steady state in C57/bl6 mouse at 1 mg/kg, iv and 10 mg/kg, po; format: ADME, organism-based; conditions: in vivo, read-out: Vdss
[10] = Half life in C57/bl6 mouse at 1 mg/kg, iv and 10 mg/kg, po; format: ADME, organism-based; conditions: in vivo
[11] = Oral bioavailability in C57/bl6 mouse at 10 mg/kg; format: ADME, organism-based; conditions: in vivo
[12] = Clearance in beagle dog at 1 mg/kg, iv and 10 mg/kg, po; format: ADME, organism-based, Canis lupus familiaris; conditions: in vivo
[13] = Volume of distribution at steady state in beagle dog at 1 mg/kg, iv and 10 mg/kg, po; format: ADME, organism-based, Canis lupus familiaris; conditions: in vivo, read-out: Vdss
[14] = Half life in beagle dog at 1 mg/kg, iv and 10 mg/kg, po; format: ADME, organism-based, Canis lupus familiaris; conditions: in vivo
[15] = Oral bioavailability in beagle dog at 10 mg/kg; format: ADME, organism-based, Canis lupus familiaris; conditions: in vivo
[16] = biological target: T1, Tyrosine-protein kinase Blk (Homo sapiens, UniProt P51451); assay: Inhibition of human recombinant Blk at 1 uM
[17] = biological target: Cytoplasmic tyrosine-protein kinase BMX (Homo sapiens) (UniProt P51813); assay: Inhibition of human recombinant Bmx at 1 uM
[18] = biological target: Tyrosine-protein kinase Tec (Homo sapiens) (UniProt P42680); assay: Inhibition of human recombinant Tec at 1 uM
Tyrosine-protein kinase Tec (Homo sapiens), sequence (P42680 whole entry): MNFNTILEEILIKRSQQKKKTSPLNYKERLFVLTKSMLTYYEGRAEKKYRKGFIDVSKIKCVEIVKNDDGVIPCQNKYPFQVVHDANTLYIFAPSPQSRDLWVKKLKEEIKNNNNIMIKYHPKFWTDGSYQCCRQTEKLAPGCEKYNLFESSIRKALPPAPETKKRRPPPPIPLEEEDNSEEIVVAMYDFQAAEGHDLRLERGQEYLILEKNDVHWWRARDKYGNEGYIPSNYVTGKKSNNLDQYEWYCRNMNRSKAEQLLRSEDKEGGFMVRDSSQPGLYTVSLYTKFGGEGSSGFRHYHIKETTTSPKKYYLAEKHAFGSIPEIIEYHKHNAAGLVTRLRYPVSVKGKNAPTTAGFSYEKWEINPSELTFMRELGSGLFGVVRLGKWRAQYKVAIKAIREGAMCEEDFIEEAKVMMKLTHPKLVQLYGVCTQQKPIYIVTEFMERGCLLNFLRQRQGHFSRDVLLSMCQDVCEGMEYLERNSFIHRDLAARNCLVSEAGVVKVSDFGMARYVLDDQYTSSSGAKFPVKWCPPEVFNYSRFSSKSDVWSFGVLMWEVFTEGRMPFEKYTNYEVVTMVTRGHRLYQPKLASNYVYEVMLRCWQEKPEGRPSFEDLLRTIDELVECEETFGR

[19] = biological target: T2, Tyrosine-protein kinase Fgr (Homo sapiens, UniProt P09769); assay: Inhibition of human recombinant Fgr at 1 uM
[20] = biological target: T3, Tyrosine-protein kinase FRK (Homo sapiens, UniProt P42685); assay: Inhibition of human recombinant Frk at 1 uM
T3 sequence (P42685 whole entry): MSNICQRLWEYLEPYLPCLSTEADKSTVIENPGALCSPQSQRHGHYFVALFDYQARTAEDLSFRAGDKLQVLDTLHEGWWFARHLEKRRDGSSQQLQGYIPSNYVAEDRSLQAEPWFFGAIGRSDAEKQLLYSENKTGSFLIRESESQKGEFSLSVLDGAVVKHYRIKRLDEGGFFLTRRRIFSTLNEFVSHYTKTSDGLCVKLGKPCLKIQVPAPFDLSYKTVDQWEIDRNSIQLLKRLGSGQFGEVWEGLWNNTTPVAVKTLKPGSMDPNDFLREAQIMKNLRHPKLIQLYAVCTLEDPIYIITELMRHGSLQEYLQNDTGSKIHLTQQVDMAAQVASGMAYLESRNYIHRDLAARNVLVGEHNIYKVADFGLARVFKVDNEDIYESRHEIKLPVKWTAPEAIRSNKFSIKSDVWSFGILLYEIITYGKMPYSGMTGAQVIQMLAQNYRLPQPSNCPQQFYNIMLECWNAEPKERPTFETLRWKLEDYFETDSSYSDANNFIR

[21] = biological target: Tyrosine-protein kinase Fyn (Homo sapiens) (UniProt P06241); assay: Inhibition of human recombinant Fyn at 1 uM
[22] = biological target: T4, Tyrosine-protein kinase HCK (Homo sapiens, UniProt P08631); assay: Inhibition of human recombinant Hck at 1 uM
[23] = biological target: T5, Proto-oncogene tyrosine-protein kinase Src (Homo sapiens, UniProt P12931); assay: Inhibition of human recombinant Src at 1 uM
T5 sequence (P12931 2-536 limits assumed): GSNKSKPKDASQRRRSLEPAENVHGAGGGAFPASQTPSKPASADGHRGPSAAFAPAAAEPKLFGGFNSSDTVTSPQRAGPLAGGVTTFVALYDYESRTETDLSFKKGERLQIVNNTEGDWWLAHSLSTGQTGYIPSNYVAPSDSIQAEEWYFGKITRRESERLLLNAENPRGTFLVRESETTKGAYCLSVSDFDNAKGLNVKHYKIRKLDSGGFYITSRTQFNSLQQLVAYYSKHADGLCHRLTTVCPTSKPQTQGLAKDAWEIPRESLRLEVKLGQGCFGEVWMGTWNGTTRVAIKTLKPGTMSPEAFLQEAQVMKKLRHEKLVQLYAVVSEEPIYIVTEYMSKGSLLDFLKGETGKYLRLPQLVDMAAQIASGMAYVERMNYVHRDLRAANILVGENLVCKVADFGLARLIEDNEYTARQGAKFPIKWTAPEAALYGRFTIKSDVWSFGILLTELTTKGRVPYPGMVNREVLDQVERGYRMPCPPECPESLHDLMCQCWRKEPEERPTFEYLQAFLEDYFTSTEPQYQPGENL

[24] = biological target: Tyrosine-protein kinase Yes (Homo sapiens) (UniProt P07947); assay: Inhibition of human recombinant Yes at 1 uM
[25] = biological target: T1, Tyrosine-protein kinase Blk; assay: Inhibition of human recombinant Blk
Target sequence in this assay (P51451 whole entry): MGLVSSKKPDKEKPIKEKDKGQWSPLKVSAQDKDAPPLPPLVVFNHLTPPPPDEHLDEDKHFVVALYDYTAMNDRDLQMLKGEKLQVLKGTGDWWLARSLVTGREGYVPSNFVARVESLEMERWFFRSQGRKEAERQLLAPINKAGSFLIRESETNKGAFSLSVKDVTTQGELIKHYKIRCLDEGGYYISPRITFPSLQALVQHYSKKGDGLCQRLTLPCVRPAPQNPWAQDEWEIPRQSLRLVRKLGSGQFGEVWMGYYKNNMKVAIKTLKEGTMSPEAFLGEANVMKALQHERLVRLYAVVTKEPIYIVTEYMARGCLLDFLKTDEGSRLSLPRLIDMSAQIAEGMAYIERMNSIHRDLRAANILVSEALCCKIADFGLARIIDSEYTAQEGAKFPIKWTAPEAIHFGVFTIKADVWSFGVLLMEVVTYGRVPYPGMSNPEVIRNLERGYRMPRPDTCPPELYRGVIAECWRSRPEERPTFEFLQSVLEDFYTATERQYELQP

[26] = biological target: Cytoplasmic tyrosine-protein kinase BMX (Homo sapiens, UniProt P51813); assay: Inhibition of human recombinant Bmx
[27] = biological target: Tyrosine-protein kinase Tec (Homo sapiens, UniProt P42680); assay: Inhibition of human recombinant Tec
Tyrosine-protein kinase Tec, sequence (P42680 whole entry): as the sequence (P42680 whole entry) above

[28] = biological target: T2, Tyrosine-protein kinase Fgr; assay: Inhibition of human recombinant Fgr
[29] = biological target: T3, Tyrosine-protein kinase FRK; assay: Inhibition of human recombinant Frk
[30] = biological target: T4, Tyrosine-protein kinase HCK; assay: Inhibition of human recombinant Hck
[31] = biological target: T6, Tyrosine-protein kinase Lyn (Homo sapiens, UniProt P07948); assay: Inhibition of human recombinant LynA
Target sequence in this assay (P07948 whole entry): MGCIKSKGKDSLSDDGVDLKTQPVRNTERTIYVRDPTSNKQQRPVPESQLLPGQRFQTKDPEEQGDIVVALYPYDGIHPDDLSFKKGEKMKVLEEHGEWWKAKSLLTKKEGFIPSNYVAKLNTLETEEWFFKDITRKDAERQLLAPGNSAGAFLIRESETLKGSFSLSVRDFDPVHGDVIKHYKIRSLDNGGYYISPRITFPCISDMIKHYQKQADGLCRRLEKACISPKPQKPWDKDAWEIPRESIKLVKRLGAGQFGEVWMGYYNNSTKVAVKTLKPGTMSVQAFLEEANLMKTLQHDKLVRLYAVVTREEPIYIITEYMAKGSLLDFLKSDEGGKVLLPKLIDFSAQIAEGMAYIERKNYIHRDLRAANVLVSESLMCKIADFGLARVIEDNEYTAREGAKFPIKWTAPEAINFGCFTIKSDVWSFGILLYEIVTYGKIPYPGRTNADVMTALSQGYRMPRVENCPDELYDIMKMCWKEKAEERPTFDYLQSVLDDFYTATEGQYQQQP

[32] = biological target: T6, Tyrosine-protein kinase Lyn; assay: Inhibition of human recombinant LynB
Target sequence in this assay (P07948 whole entry): as above

[33] = biological target: T5, Proto-oncogene tyrosine-protein kinase Src; assay: Inhibition of human recombinant Src
[34] = biological target: T6, Tyrosine-protein kinase Lyn; conditions: 1 uM
Target sequence in this assay (P07948 2-512 limits assumed): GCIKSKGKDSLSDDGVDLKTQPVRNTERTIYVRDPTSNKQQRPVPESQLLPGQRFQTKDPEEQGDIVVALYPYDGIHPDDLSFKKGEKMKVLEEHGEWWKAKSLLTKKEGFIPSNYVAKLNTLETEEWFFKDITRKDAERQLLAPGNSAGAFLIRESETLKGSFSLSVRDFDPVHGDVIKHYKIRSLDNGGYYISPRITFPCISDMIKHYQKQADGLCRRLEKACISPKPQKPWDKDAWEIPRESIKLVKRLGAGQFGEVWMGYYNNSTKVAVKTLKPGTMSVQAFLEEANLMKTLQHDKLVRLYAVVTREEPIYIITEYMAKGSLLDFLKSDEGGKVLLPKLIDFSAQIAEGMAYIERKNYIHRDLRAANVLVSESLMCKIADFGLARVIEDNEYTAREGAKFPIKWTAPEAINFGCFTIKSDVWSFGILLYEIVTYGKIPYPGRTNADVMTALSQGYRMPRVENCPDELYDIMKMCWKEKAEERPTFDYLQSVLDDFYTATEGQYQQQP
Description: Inhibition of human recombinant LynA at 1 uM

[35] = biological target: T6, Tyrosine-protein kinase Lyn; conditions: 1 uM; remark: listed apart in the source
Target sequence in this assay (P07948 2-512 limits assumed): as above
Description: Inhibition of human recombinant LynB at 1 uM

[36] = biological target: T7, Tyrosine-protein kinase BTK (Homo sapiens, UniProt Q06187)
T7 sequence (Q06187 whole entry): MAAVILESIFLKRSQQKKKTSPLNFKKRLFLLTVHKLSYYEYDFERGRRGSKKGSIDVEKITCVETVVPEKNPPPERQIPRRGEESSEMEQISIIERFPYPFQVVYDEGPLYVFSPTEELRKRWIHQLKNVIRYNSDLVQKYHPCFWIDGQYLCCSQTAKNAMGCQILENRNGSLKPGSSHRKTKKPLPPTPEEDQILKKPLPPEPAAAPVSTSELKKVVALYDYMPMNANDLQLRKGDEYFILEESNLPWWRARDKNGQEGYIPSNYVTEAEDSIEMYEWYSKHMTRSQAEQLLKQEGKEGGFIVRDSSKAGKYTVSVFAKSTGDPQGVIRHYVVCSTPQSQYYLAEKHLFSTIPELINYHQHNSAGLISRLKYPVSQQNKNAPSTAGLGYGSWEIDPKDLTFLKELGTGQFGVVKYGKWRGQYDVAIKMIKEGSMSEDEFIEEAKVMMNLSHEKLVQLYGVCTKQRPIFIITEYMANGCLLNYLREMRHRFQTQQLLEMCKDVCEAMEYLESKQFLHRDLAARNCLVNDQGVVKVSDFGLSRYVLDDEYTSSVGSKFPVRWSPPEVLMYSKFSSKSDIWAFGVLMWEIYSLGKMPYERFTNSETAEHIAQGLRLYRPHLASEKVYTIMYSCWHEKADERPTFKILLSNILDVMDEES
Description: Inhibition of BTK in human Raji cells after 30 mins by HTRF assay

[37] = biological target: T7, Tyrosine-protein kinase BTK; assay: Inhibition of BTK autophosphorylation in human Raji cells after 30 mins by Phos-Y223 Btk HTRF assay; format: cell-based
[38] = Hepatic extraction ratio in human liver microsomes at 1 uM up to 30 mins by LC-MS/MS analysis; format: ADME; conditions: read-out: ERH
[39] = Hepatic extraction ratio in rat liver microsomes at 1 uM up to 30 mins by LC-MS/MS analysis; format: ADME; conditions: read-out: ERH
MDR1 = assay: Apparent permeability across apical to basolateral side in pig LLC-PK1 cells expressing MDR1; format: ADME, cell-based, Sus scrofa
LLC-PK1 = assay: Efflux ratio of apparent permeability across apical to basolateral side over basolateral to apical side in pig LLC-PK1 cells expressing MDR1; format: ADME, cell-based, Sus scrofa
[40] = Hepatic extraction ratio in Sprague-Dawley rat at 1 mg/kg, iv; format: ADME, organism-based; conditions: in vivo, read-out: ERH

Tyrosine-protein kinase Lck, sequence (P06239 whole entry): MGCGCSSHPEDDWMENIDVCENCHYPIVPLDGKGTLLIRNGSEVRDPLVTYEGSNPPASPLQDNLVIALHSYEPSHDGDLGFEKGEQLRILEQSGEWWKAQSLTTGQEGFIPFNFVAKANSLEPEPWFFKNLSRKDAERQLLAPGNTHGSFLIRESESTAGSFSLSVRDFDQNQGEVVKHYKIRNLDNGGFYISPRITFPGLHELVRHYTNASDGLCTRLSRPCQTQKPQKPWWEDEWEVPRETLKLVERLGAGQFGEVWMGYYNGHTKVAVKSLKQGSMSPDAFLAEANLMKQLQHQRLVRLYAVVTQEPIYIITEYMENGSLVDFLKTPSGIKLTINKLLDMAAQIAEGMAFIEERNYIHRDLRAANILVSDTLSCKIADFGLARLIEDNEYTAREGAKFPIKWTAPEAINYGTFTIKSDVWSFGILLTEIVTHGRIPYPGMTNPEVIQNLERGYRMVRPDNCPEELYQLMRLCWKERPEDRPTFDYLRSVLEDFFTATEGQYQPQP

SMILES: NC(=O)c1nnc2c(-c3ccc4cc[nH]c4c3)cccc2c1N
IC50 [1]: 6400 nM

SMILES: NC(=O)c1nnc2c(-c3ccc4cn[nH]c4c3)cccc2c1N
IC50 [1]: 1300 nM

SMILES: Cc1cc2cn[nH]c2cc1-c1cccc2c(N)c(C(N)=O)nnc12
clearance [2]: 12 mL/min/kg
Vd [3]: 1.5 L/kg
half-life [4]: 1.6 h
bioavailability [5]: 70%
IC50 (Activin receptor type-1): 7 nM
IC50 (LIM domain kinase 1): 12 nM
IC50 (Activated CDC42 kinase 1): 11 nM
Activity (Rattus norvegicus [6]): Dose-dependent effect
Activity (Rattus norvegicus [7]): Dose-dependent effect
clearance [8]: 18 mL/min/kg
Vd [9]: 0.8 L/kg
half-life [10]: 1.6 h
bioavailability [11]: 93%
clearance [12]: 8.7 mL/min/kg
Vd [13]: 1.1 L/kg
half-life [14]: 4.1 h
bioavailability [15]: 89%
inhibition [16]: 89%
inhibition [17]: 91%
inhibition [18]: 92%
inhibition [19]: 94%
inhibition [20]: 88%
inhibition [21]: 53%
inhibition [22]: 82%
inhibition [23]: 87%
inhibition [24]: 73%
IC50 [25]: 36 nM
IC50 [26]: 36 nM
IC50 [27]: 57 nM
IC50 [28]: 41 nM
IC50 [29]: 41 nM
IC50 [30]: 99 nM
IC50 [31]: 82 nM
IC50 [32]: 54 nM
IC50 [33]: 67 nM
inhibition [34]: 82%
inhibition [35]: 85%

Continued, values first:

IC50 [1]: 38000 nM
IC50 [36]: 3500 nM
SMILES: NC(=O)c1nnc2ccccc2c1N

EC50 [37]: > 50000 nM
IC50 [1]: 13000 nM
hepatic extraction ratio at 0.5 h, 1 µM [38]: 0.77
hepatic extraction ratio at 0.5 h, 1 µM [39]: 0.5
Papp A→B (MDR1): 28.8 ×10⁻⁶ cm/s
Ratio (LLC-PK1): 0.7
clearance [2]: 22 mL/min/kg
hepatic extraction ratio [40]: 0.3
Vd [3]: 0.7 L/kg
half-life [4]: 1.3 h
bioavailability [5]: 35%
IC50 [36]: 240000 nM
SMILES: Cn1cc(-c2cccc3c(N)c(C(N)=O)nnc23)cn1
